Assay: Tissue distribution of radioactivity by quantitative whole body autoradiography (QWBA) after single intravenous [3H]-AMTX-100
Assay type: in vivo, rat
Method: The formulation was administered directly into a tail vein. The dose volume (2.5 mL/kg) was used to achieve a dose level of 5 mg/kg and radioactive dose levels of 100 μCi/kg (Phase 1) and 500 μCi/kg (Phase 2). The dose formulation was stirred continuously throughout the dosing procedure.
Quantitative Whole Body Autoradiography (QWBA). The frozen carcasses were subjected to QWBA. Sections were presented at up to five different levels of the rat body to include between 30 and 40 tissues (subject to presence of sufficient radioactivity).
The freeze-dried whole body autoradiography sections were exposed to phosphor-storage imaging plates and incubated at ambient temperature in the dark for seven days. Calibrated autoradiographic blood standards containing known amounts of radioactivity (nCi/g) were included in each exposure.
Distribution of radioactivity in tissues and [^3H]-blood standards (prepared and validated at Pharmaron UK Ltd.) was determined and quantified using a Fuji FLA-5100 fluorescent image analyzing system and associated Tina (version 2.09) and SeeScan (version 2.0) software. For each exposure, a standard curve was produced in SeeScan using the data from the autoradiographic blood standards from which tissue concentrations of radioactivity (μg equivalents/g) were determined.
A representative background radioactivity measurement for each exposure plate used was also taken. The number of measurements for each particular tissue was determined by the number of levels it appeared in. Multiple measurements were therefore performed for larger tissues that appeared in more than one level (e.g. liver), with only one measurement obtained for small tissues (e.g. thyroid gland). The limit of accurate quantification was considered to be the lowest [^3H]-blood standard visible.
Three of the carcasses obtained from the eight male Sprague Dawley rats subjected to whole blood collection and analysis after each receiving a single intravenous administration of [^3H]-AMTX-100, were selected for QWBA analysis at each of the following time points: 10 minutes and 2 and 12 hours post-dose.
Each carcass was snap frozen by immersion in a hexane/dry ice mixture immediately after collection and was then stored at approximately −20° C., pending analysis by QWBA.

[1] = single intravenous, 5 mg/kg, rat, 10 min
[2] = single intravenous, 5 mg/kg, rat, 2 hr

CSCC[C@@H]1NC(=O)[C@H](CC(C)C)NC(=O)[C@H](CCCCN)NC(=O)[C@H](CCC(N)=O)CC(=O)[C@H](CCCNC(=N)N)NC(=O)[C@H](CCCCN)NC(=O)[C@H](CCCNC(=N)N)NC(=O)[C@H](CCC(N)=O)NC(=O)[C@H](C(C)C)NC(=O)[C@@H](NC(=O)[C@@H]2CCCN2C(=O)[C@H](C)NC(=O)[C@H](CC(C)C)NC(=O)[C@H](CC(C)C)NC(=O)[C@H](C)NC(=O)[C@H](CC(C)C)NC(=O)[C@H](CC(C)C)NC(=O)[C@@H](NC(=O)[C@H](C)NC(=O)[C@@H]2CCCN2C(=O)[C@H](CC(C)C)NC(=O)[C@H](CC(C)C)NC(=O)[C@H](C)NC(=O)[C@@H](NC(=O)[C@H](C)NC(=O)[C@H](C)N)C(C)C)C(C)C)CSSC[C@@H](C(=O)O)NC(=O)[C@@H]2CCCN2C1=O [[^3H]-AMTX-100]
Radioactivity localization in heart and other muscle cells (rats): lack of radioactivity localization in heart and other muscle cells | Organ localization of radioactivity (rats, spleen, lung, liver, lymph nodes, kidney, adrenal gland, bone marrow, pancreas, small intestine, etc.): localized to organs where immune cells are known to reside and traffic through | Concentration of radioactivity in Adrenal gland [1]: 9.93 μg equivalents/g | Concentration of radioactivity in Blood: residual cardiac [1]: 2.89 μg equivalents/g | Concentration of radioactivity in Bone [1]: BLQ (Below lower limit of accurate quantification (<0.36 μg equivalents/g)) | Concentration of radioactivity in Bone marror [1]: 4.44 μg equivalents/g | Concentration of radioactivity in Brain [1]: BLQ (Below lower limit of accurate quantification (<0.36 μg equivalents/g)) | Concentration of radioactivity in Caecum contents [1]: BLQ (Below lower limit of accurate quantification (<0.36 μg equivalents/g)) | Concentration of radioactivity in Caecum mucosa [1]: 0.82 μg equivalents/g | Concentration of radioactivity in Choroid plexus [1]: 0.71 μg equivalents/g | Concentration of radioactivity in Epididymis [1]: 0.44 μg equivalents/g | Concentration of radioactivity in Ex-orbital lachrymal gland [1]: 0.71 μg equivalents/g | Concentration of radioactivity in Eye: lens [1]: BLQ (Below lower limit of accurate quantification (<0.36 μg equivalents/g)) | Concentration of radioactivity in Eye: whole [1]: BLQ (Below lower limit of accurate quantification (<0.36 μg equivalents/g)) | Concentration of radioactivity in Fat: brown [1]: 0.59 μg equivalents/g | Concentration of radioactivity in Fat: white [1]: 0.38 μg equivalents/g | Concentration of radioactivity in Forestomach mucosa [1]: 0.52 μg equivalents/g | Concentration of radioactivity in Glandular stomach mucosa [1]: 1.13 μg equivalents/g | Concentration of radioactivity in Harderian gland [1]: 0.46 μg equivalents/g | Concentration of radioactivity in Kidney: cortex [1]: 16.30 μg equivalents/g | Concentration of radioactivity in Kidney: medulla [1]: 10.10 μg equivalents/g | Concentration of radioactivity in Kidney: whole [1]: 13.30 μg equivalents/g | Concentration of radioactivity in Large intestine contents [1]: BLQ (Below lower limit of accurate quantification (<0.36 μg equivalents/g)) | Concentration of radioactivity in Large intestine mucosa [1]: 0.80 μg equivalents/g | Concentration of radioactivity in Liver [1]: 58.60 μg equivalents/g | Concentration of radioactivity in Lung [1]: 96.70 μg equivalents/g | Concentration of radioactivity in Lymph node [1]: 1.13 μg equivalents/g | Concentration of radioactivity in Muscle [1]: 0.52 μg equivalents/g | Concentration of radioactivity in Myocardium [1]: 1.25 μg equivalents/g | Concentration of radioactivity in Pancreas [1]: 1.71 μg equivalents/g | Concentration of radioactivity in Pituitary gland [1]: 2.21 μg equivalents/g | Concentration of radioactivity in Prostate gland [1]: 0.41 μg equivalents/g | Concentration of radioactivity in Salivary gland [1]: 1.09 μg equivalents/g | Concentration of radioactivity in Skin [1]: 0.48 μg equivalents/g | Concentration of radioactivity in Small intestine contents [1]: BLQ (Below lower limit of accurate quantification (<0.36 μg equivalents/g)) | Concentration of radioactivity in Small intestine mucosa [1]: 0.54 μg equivalents/g | Concentration of radioactivity in Spinal cord [1]: BLQ (Below lower limit of accurate quantification (<0.36 μg equivalents/g)) | Concentration of radioactivity in Spleen: red pulp [1]: 15.40 μg equivalents/g | Concentration of radioactivity in Spleen: white pulp [1]: 8.70 μg equivalents/g | Concentration of radioactivity in Spleen: whole [1]: 55.80 μg equivalents/g | Concentration of radioactivity in Stomach contents [1]: BLQ (Below lower limit of accurate quantification (<0.36 μg equivalents/g)) | Concentration of radioactivity in Testis [1]: BLQ (Below lower limit of accurate quantification (<0.36 μg equivalents/g)) | Concentration of radioactivity in Thymus [1]: 0.45 μg equivalents/g | Concentration of radioactivity in Thyroid gland [1]: 1.66 μg equivalents/g | Concentration of radioactivity in Urinary bladder contents [1]: 67.50 μg equivalents/g | Concentration of radioactivity in Urinary bladder wall [1]: 0.69 μg equivalents/g | Concentration of radioactivity in Adrenal gland [2]: 5.33 μg equivalents/g | Concentration of radioactivity in Blood: residual cardiac [2]: 0.82 μg equivalents/g | Concentration of radioactivity in Bone [2]: BLQ (Below lower limit of accurate quantification (<0.36 μg equivalents/g)) | Concentration of radioactivity in Bone marror [2]: 4.40 μg equivalents/g | Concentration of radioactivity in Brain [2]: BLQ (Below lower limit of accurate quantification (<0.36 μg equivalents/g)) | Concentration of radioactivity in Caecum contents [2]: BLQ (Below lower limit of accurate quantification (<0.36 μg equivalents/g)) | Concentration of radioactivity in Caecum mucosa [2]: 0.76 μg equivalents/g | Concentration of radioactivity in Epididymis [2]: 0.67 μg equivalents/g | Concentration of radioactivity in Ex-orbital lachrymal gland [2]: 0.46 μg equivalents/g
